Experimental data published in US8574544B1, “Pharmaceutical composition of nanoparticles” (GP Medical, Inc., priority 2005, dated 2013).

Experiments:
[1] = in vivo; cited from earlier work
[2] = system: brush border membrane bounded enzymes; experiment: Enzyme inhibition study: enzymatic degradation of insulin versus time; assay type: biochemical; conditions: 5 mg/ml; insulin 1 mg/ml; up to 2 hours
Text: Brush border membrane bounded enzymes were used to simulate a contacting membrane at the bottom of a donor compartment, wherein the insulin-loaded medium (Krebs-Ringer buffer) in the donor compartment was used as the starting material at time zero. Three elements were used in this enzyme inhibition study to assess the enzymatic degradation of insulin versus time by brush border membrane bounded enzymes.

[3] = 20° C.; cited from earlier work
[4] = cited from earlier work
[5] = insulin from bovine pancreas (Sigma-Aldrich); cited from earlier work
[6] = system: diabetic rats; experiment: Freeze-dried nanoparticles in enteric-coated capsule in diabetic rats (Example no. 19); assay type: in vivo; conditions: SC injection 5 U/kg
Protocol: In the in vivo study, rats as prepared and conditioned according to Example no. 10 were used in this evaluation. […] The blood glucose concentration from rat's tail was measured over time.
As anticipated, the glucose decrease for the SC insulin injection method is evident in rat blood at a very early time interval starts to taper off after 2 hours, and ends at about 6 hours in this exemplary study. The most important observation of the study comes from the oral administration route with insulin-loaded lyophilized (namely, freeze-dried) nanoparticles. Nanoparticles of this example have an insulin LC at 4.4%, whereas nanoparticles from Example no. […] With the same amount of nanoparticles in both examples, the insulin-feeding ratio of Example no. 19 to Example no. 10 is about 1:3. In other words, the insulin fed to a rat in this study from nanoparticles is about ⅓ of the insulin from nanoparticles fed to rats in Example no. 10.
The blood glucose begins to decrease from the base line at about 3 hours after administration and sustains a lower glucose level for more than 10 hours into study. It implies that the current insulin-loaded nanoparticles may modulate the glucose level in animals in a sustained or prolonged effective mode. […]

[7] = system: diabetic rats; experiment: Hypoglycemic effect in diabetic rats (Example no. 10); assay type: in vivo, Wistar male rats
Protocol: In the in vivo study, rats were injected with streptozotocin (STZ 75 mg/kg intraperitoneal) in 0.01M citrate buffer (pH 4.3) to induce diabetes. The blood from the rat's tail was analyzed with a commercially available glucometer for blood glucose. The blood glucose level on Wistar male rats at no fasting (n=5) was measured at 107.2±8.1 mg/dL for normal rats while the blood glucose level was at 469.7±34.2 mg/dL for diabetic rats. In the animal study, diabetic rats were fasting for 12 hours and subjected to four different conditions: (a) oral deionized water (DI) administration; (b) oral insulin administration at 30 U/kg; (c) oral insulin-loaded nanoparticles administration at 30 U/kg; and (d) subcutaneous (SC) insulin injection at 5 U/kg as positive control. The blood glucose concentration from rat's tail was measured over the time in the study.
It is illustrative that substantially all insulin from the oral administration route has been decomposed in rat stomach. As anticipated, the glucose decrease for the SC insulin injection route appears in rat blood in the very early time interval and starts to taper off after 3 hours in this exemplary study.
The most important observation of the study comes from the oral administration route with insulin-loaded nanoparticles. […]

Compound: 21^A-Gly-30^Ba-L-Arg-30^Bb-L-Arg-human insulin [Insulin glargine]
- duration of activity [1]: up to 24 hours

Compound: O=C(O)CN(CCN(CC(=O)O)CC(=O)O)CCN(CC(=O)O)CC(=O)O [DTPA, Diethylene triamine pentaacetic acid]
- protection of insulin activity or viable content against enzymatic degradation [2]: substantially protect or maintain the insulin activity or viable content

Compound: OC[C@H]1O[C@H](O[C@H]2O[C@H](CO)[C@@H](O)[C@H](O)[C@H]2O)[C@H](O)[C@@H](O)[C@@H]1O [Trehalose, α-D-glucopyranosyl-(1→1)-α-D-glucopyranoside]
- solubility [3]: 68.9 g/100 g H2O

Compound: Drotrecogin alfa (activated)
- time to peak plasma levels ([4]; i.v. dosage guidelines): two
- time to complete clearance from plasma after termination of infusion ([4]; i.v. infusion): two

Compound: insulin: model insulin from bovine pancreas (Sigma-Aldrich), given orally or by SC injection as controls
- activity [5]: ≥ 27 USP units/mg
- time after which glucose decrease starts to taper off [6]: 2 h
- time at which glucose decrease ends [6]: about 6 hours
- time after which glucose decrease starts to taper off ([7]; SC injection 5 U/kg): 3 h
- glucose change as a percentage of base lines ([7]; oral 30 U/kg, over 8 hours, n=5): relatively constant
